Assay results: patent US12077503B2, “Substituted cyclic amides and their use as herbicides” (FMC CORPORATION, priority 2015, dated 2024)

Columns and labels:
Assay type in all cases: in vivo
[1] = tested on: blackgrass (Alopecurus myosuroides); assay: Test A postemergence; details: Alopecurus myosuroides, post-emergence, 240 h, Postemergence, read-out: Plant response rating, Blackgrass
Summary of the method: (§1)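 Seeds sprayed preemergence with a directed soil spray, or plants at 2 to 10 cm height and one- to two-leaf stage sprayed postemergence, with test chemicals in a non-phytotoxic solvent mixture containing surfactant, in loam soil–sand blend. Injury rated visually against untreated controls after about 10 d in greenhouse, 0 (no effect) to 100 (complete control).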

[2] = tested on: wheat (Triticum aestivum); assay: Test A postemergence; details: Triticum aestivum, post-emergence, 240 h, Postemergence, read-out: Plant response rating, Wheat
Summary of the method: as §1

[3] = tested on: ryegrass, Italian (Italian ryegrass, Lolium multiflorum); assay: Test A postemergence; details: Lolium multiflorum, post-emergence, 240 h, Postemergence, read-out: Plant response rating, Ryegrass, Italian
Summary of the method: as §1

[4] = tested on: Kochia (Kochia scoparia); assay: Test A postemergence; details: Bassia scoparia, post-emergence, 240 h, Postemergence, read-out: Plant response rating, Kochia
Summary of the method: as §1

[5] = tested on: Galium (catchweed bedstraw, Galium aparine); assay: Test A postemergence; details: Galium, post-emergence, 240 h, Postemergence, read-out: Plant response rating, Galium
Summary of the method: as §1

[6] = tested on: barnyardgrass (Echinochloa crus-galli); assay: Test A postemergence; details: Echinochloa crus-galli, post-emergence, 240 h, Postemergence, read-out: Plant response rating, Barnyardgrass
Summary of the method: as §1

[7] = tested on: ragweed (common ragweed, Ambrosia elatior); assay: Test A postemergence; details: Ambrosia artemisiifolia, post-emergence, 240 h, Postemergence, read-out: Plant response rating, Ragweed
Summary of the method: as §1

[8] = tested on: pigweed (Amaranthus retroflexus); assay: Test A postemergence; details: Amaranthus retroflexus, post-emergence, 240 h, Postemergence, read-out: Plant response rating, Pigweed
Summary of the method: as §1

[9] = tested on: corn (Zea mays); assay: Test A postemergence; details: Zea mays, post-emergence, 240 h, Postemergence
Summary of the method: as §1

[10] = tested on: giant foxtail (Setaria faberii); assay: Test A postemergence; details: Setaria faberi, post-emergence, 240 h, Postemergence, read-out: Plant response rating, Foxtail, Giant
Summary of the method: as §1

[11] = tested on: rice (Oryra sativa); assay: Test B flooded paddy test; details: Oryza sativa, Flood, 250 g ai/ha; scale of 0 to 100 where 0 is no effect and 100 is complete control; read-out: Rice plant response rating
Summary of the method: (§2)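 Plants at 2-leaf stage flooded to 3 cm above soil, with compounds applied directly to paddy water and that depth maintained. Plants kept in greenhouse 13–15 d. Visual rating versus controls on a 0 (no effect) to 100 (complete control) scale.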

[12] = tested on: barnyardgrass (Echinochloa crus-galli); assay: Test B flooded paddy test; details: Echinochloa crus-galli, Flood, 250 g ai/ha; scale of 0 to 100 where 0 is no effect and 100 is complete control; read-out: Barnyardgrass plant response rating
Summary of the method: as §2

[13] = tested on: sedge, umbrella (small-flower umbrella sedge, Cyperus difformis); assay: Test B flooded paddy test; details: Cyperus difformis, Flood, 250 g ai/ha; scale of 0 to 100 where 0 is no effect and 100 is complete control; read-out: Sedge, Umbrella plant response rating
Summary of the method: as §2

[14] = tested on: ducksalad (Heteranthera limosa); assay: Test B flooded paddy test; details: Heteranthera limosa, Flood, 250 g ai/ha; scale of 0 to 100 where 0 is no effect and 100 is complete control; read-out: Ducksalad plant response rating
Summary of the method: as §2

[15] = tested on: ryegrass, Italian (Italian ryegrass, Lolium multiflorum); assay: Test A preemergence; details: Lolium multiflorum, pre-emergence, 240 h, Preemergence
Summary of the method: as §1

[16] = tested on: Kochia (Kochia scoparia); assay: Test A preemergence; details: Bassia scoparia, pre-emergence, 240 h, Preemergence
Summary of the method: as §1

[17] = tested on: barnyardgrass (Echinochloa crus-galli); assay: Test A preemergence; details: Echinochloa crus-galli, pre-emergence, 240 h, Preemergence
Summary of the method: as §1

[18] = tested on: ragweed (common ragweed, Ambrosia elatior); assay: Test A preemergence; details: Ambrosia artemisiifolia, pre-emergence, 240 h, Preemergence
Summary of the method: as §1

[19] = tested on: pigweed (Amaranthus retroflexus); assay: Test A preemergence; details: Amaranthus retroflexus, pre-emergence, 240 h, Preemergence
[20] = tested on: giant foxtail (Setaria faberii); assay: Test A preemergence; details: Setaria faberi, pre-emergence, 240 h, Preemergence
Summary of the method: as §1

[21] = 125 g ai/ha, visual injury after approximately 10 d, 0 to 100 scale where 0 is no effect and 100 is complete control
[22] = 31 g ai/ha, visual injury after approx. 10 d, 0 to 100 scale, 0 no effect, 100 complete control

`Cc1oncc1NC(=O)[C@H]1C(=O)N(C)C[C@@H]1c1cc(F)cc(F)c1` [Compound 970] was tested, and the pest or weed control at 125 g/ha [1, 21] was 0%, the pest or weed control at 31 g/ha [1, 22] was 0% and the plant injury at 125 g/ha [2, 21] was 0%. The plant injury at 31 g/ha [2, 22] was 0%, the pest or weed control at 125 g/ha [3, 21] was 0% and the pest or weed control at 31 g/ha [3, 22] was 0%. It also gave a pest or weed control at 125 g/ha [4, 21] of 0%, a pest or weed control at 31 g/ha [4, 22] of 0% and a pest or weed control at 125 g/ha [5, 21] of 0%. The pest or weed control at 31 g/ha [5, 22] was 0%, the pest or weed control at 125 g/ha [6, 21] was 0% and the pest or weed control at 31 g/ha [6, 22] was 0%. For the same molecule, the pest or weed control at 125 g/ha [7, 21] was 0%, the pest or weed control at 31 g/ha [7, 22] was 0% and the pest or weed control at 125 g/ha [8, 21] was 0%. For the same molecule, the pest or weed control at 31 g/ha [8, 22] was 0%, the Corn plant response rating (crop injury, 0 = no effect, 100 = complete kill) at 125 g/ha [9, 21] was 0% and the Corn plant response rating (crop injury, 0 = no effect, 100 = complete kill) at 31 g/ha [9, 22] was 0%. It also gave a pest or weed control at 125 g/ha [10, 21] of 0%, a pest or weed control at 31 g/ha [10, 22] of 0% and a pest or weed control at 250 g/ha [11] of 0%. The pest or weed control at 250 g/ha [12] was 0%, the pest or weed control at 250 g/ha [13] was 0% and the pest or weed control at 250 g/ha [14] was 0%. It also gave a pest or weed control at 125 g/ha ([15]; 125 g ai/ha, visual injury rating after approximately 10 d, read-out: Ryegrass, Italian plant response rating (0 to 100 scale, 0 is no effect, 100 is complete control)) of 0%, a pest or weed control at 31 g/ha ([15]; 31 g ai/ha, 0 to 100 scale (0 no effect, 100 complete control), read-out: Plant response rating, Ryegrass, Italian) of 0% and a pest or weed control at 125 g/ha ([16]; 125 g ai/ha, visual injury rating after approximately 10 d, read-out: Kochia plant response rating (0 to 100 scale, 0 is no effect, 100 is complete control)) of 0%. It also gave a pest or weed control at 31 g/ha ([16]; 31 g ai/ha, 0 to 100 scale (0 no effect, 100 complete control), read-out: Plant response rating, Kochia) of 0%, a pest or weed control at 125 g/ha ([17]; 125 g ai/ha, visual injury rating after approximately 10 d, read-out: Barnyardgrass plant response rating (0 to 100 scale, 0 is no effect, 100 is complete control)) of 0% and a pest or weed control at 31 g/ha ([17]; 31 g ai/ha, 0 to 100 scale (0 no effect, 100 complete control), read-out: Plant response rating, Barnyardgrass) of 0%. It also gave a pest or weed control at 125 g/ha ([18]; 125 g ai/ha, visual injury rating after approximately 10 d, read-out: Ragweed plant response rating (0 to 100 scale, 0 is no effect, 100 is complete control)) of 0%, a pest or weed control at 31 g/ha ([18]; 31 g ai/ha, 0 to 100 scale (0 no effect, 100 complete control), read-out: Plant response rating, Ragweed) of 0% and a pest or weed control at 125 g/ha ([19]; 125 g ai/ha, visual injury rating after approximately 10 d, read-out: Pigweed plant response rating (0 to 100 scale, 0 is no effect, 100 is complete control)) of 0%. For the same molecule, the pest or weed control at 31 g/ha ([19]; 31 g ai/ha, 0 to 100 scale (0 no effect, 100 complete control), read-out: Plant response rating, Pigweed) was 0%, the pest or weed control at 125 g/ha ([20]; 125 g ai/ha, visual injury rating after approximately 10 d, read-out: Foxtail, Giant plant response rating (0 to 100 scale, 0 is no effect, 100 is complete control)) was 80% and the pest or weed control at 31 g/ha ([20]; 31 g ai/ha, 0 to 100 scale (0 no effect, 100 complete control), read-out: Plant response rating, Foxtail, Giant) was 20%.
